This is an account of results in patent publication US20230277669A1, “USES OF UROLITHINS” (Amazentis SA, priority 2022, published 2023).

One test has as its system TIL CD8+ population. Nature of the test: Flow cytometry analysis of TIL of UA-fed mice with APTK tumors. The format is in vivo, C57BL/6 mice. The method, then:
(§1) (FIG. 2A) Scheme of CD3+ T-cell activation and analysis for various timepoints. (FIG. 2B) Reduced effector molecule expression on in vitro treated cells (n=3 pooled from three independent experiments). Isolated T-cells were stimulated for 48 h at the presence of UA or DMSO in the indicated doses. Data are mean ± SD, *p < 0.05 by two-sided t-test. (FIG. 2C) Reduced effector molecule expression on in vitro treated cells (n=3 pooled from three independent experiments). Isolated T-cells were stimulated for 48 h at the presence of UA or DMSO in the indicated doses. Data are mean ± SD, *p < 0.05 by two-sided t-test. (FIG. 2D) Quantification of T memory stem cells (TSCM: CD44^-CD62L^+Sca1^hi) after 24 h, 48 h and 96 h post stimulation with aCD3/aCD28 stimulation beads as indicated in (A) (n=4 pooled from four independent experiments). Data are mean ± SD, statistical analysis was performed via two-sided t-test (*p < 0.05; **p < 0.01; n.s. not significant). (FIG. 2E) Mitochondrial membrane potential within naïve CD62L^+CD44^-CD8^+ T cells, with TMRM^lo representing cells with low mitochondrial membrane potential. Cells were stimulated for 48 h as depicted in (A). Data are mean ± SD, n=4; ***p <0.001 by two-sided t-test. Experiment was repeated twice in independent experiments. (FIG. 2F) Representative histogram and quantification of memory marker CD95 expression in CD62L^+CD44^-CD8^+ cells, 48 hours after in vitro stimulation. Data are mean ± SD; n=5; ****p < 0.0001 by two-sided t-test. Data depicts one of two independent experiments. (FIG. 2G) Analysis of TIL of UA-fed mice, treated as depicted in FIG. 1J. Percentage of TSCM within CD8+ (G; n=7), as well as TCF1 (H; n=7) PD1^hi,Tim3^hi and CTLA4hi (I-K, all n=6) in the TIL CD8+ population are shown. Data are mean ± SD, statistical analysis was performed via two-sided t-test (*p < 0.05; **p < 0.01;, ***p <0.001.). Data depicts one of two independent experiments. (FIG. 2H) The same experiment as FIG. 2G with TCF1 (n=7) in the TIL CD8+ population. (FIG. 2I) The same experiment as FIG. 2G with PD1^hi (n=6) in the TIL CD8+ population. (FIG. 2J) The same experiment as FIG. 2G with Tim3^hi (n=6) in the TIL CD8+ population. (FIG. 2K) The same experiment as FIG. 2G with CTLA4hi (n=6) in the TIL CD8+ population. (FIG. 2L) Flow cytometry readout of ex vivo cytokine release of previously isolated TIL upon re-stimulation with PMA/ionomycin. Data are mean ± SD with n=7 per group. Statistical analysis was performed by two-sided t-test (**p < 0.01). One out of two independent experiments are shown. (FIG. 2M) Flow cytometry readout of ex vivo cytokine release of previously isolated TIL upon re-stimulation with PMA/ionomycin. Data are mean ± SD with n=7 per group. Statistical analysis was performed by two-sided t-test (**p < 0.01). One out of two independent experiments are shown.
(FIG. 5L) UA induces PGC-1α expression in stimulated CD8+ cells. PGC-1α MFI at 48 h upon stimulation, as assessed by intracellular staining, is shown (n=3). One of two independent experiments are shown. Data are mean ± SD, statistical analysis was performed by two-sided t-test (p**<0.01). (FIG. 5M) Mitochondrial content of TIL CD8+ cells harvested from APTK-carrying mice, fed UA or control diet as depicted in FIG. 1J. Assessed by Mitotracker Red staining. Data are mean ± SD, *p < 0.05 by two-sided t-test. (FIG. 5N) Mitophagy and subsequent PGAM5 release drive PGC-1α upregulation. PGC-1α expression of CD8+ cells derived from Pink1^-/- KO mice upon 48 h stimulation in vitro in the presence of UA or DMSO control (n=4). Data are mean ± SD, statistical analysis was performed by two-sided t-test. Depicts one of two independent experiments. (FIG. 5O) Mitophagy and subsequent PGAM5 release drive PGC-1 α upregulation. PGC-1α expression of CD8+ cells derived from PGAM5^-^/- mice upon 48 h stimulation in vitro in the presence of UA or DMSO control (n=4). Data are mean ± SD, statistical analysis was performed by two-sided t-test. […]

A further test relates to CD8+ T cells. Nature of the test: In vitro stimulation of CD3+ T cells with aCD3/aCD28 beads in presence of UA. The format is cell-based, FVB mice. The method, then:
as §1
(FIG. 4A) Scheme of CD3+ T-cell activation and analysis for various timepoints in order to investigate mitophagy induction in vitro. (FIG. 4B) Analysis of mitochondrial membrane potential within CD8+ T cells, with TMRM^lo representing cells with low mitochondrial membrane potential. Analysis was performed six hours after stimulation with aCD/aCD28 stimulation beads at the presence of the indicated treatments. N=4 per group, *p < 0.05 by Mann Whitney U test. One of two independent experiments are shown. (FIG. 4C) Representative flow histogram and quantification of lysosome formation in CD8+ cells six hours after in vitro stimulation. MFI shown relative to DMSO controls, n=4. Data are normalised mean ± SD, statistical analysis by two-sided t-test. One out of two independent experiments are shown. (FIG. 4D) Mitotracker Red staining of in vitro stimulated CD8+ cells after 24 hours of Urolithin A (UA25 n=6; UA50 n=6) or vehicle control treatment (DMSO: n=4). A representative flow histogram depicting identification of Mitotracker^hi cells is shown. […]

Setting [1] is: ex vivo restimulation with PMA/ionomycin.

The structures appear in SMILES notation.

For `O=c1oc2cc(O)ccc2c2ccc(O)cc12` [Urolithin A], the “mitochondrial content in TIL of APTK tumors” value with TIL CD8+ population (UA or control diet) was “increased mitochondrial content”. Besides, in the test with TIL CD8+ population (UA-fed mice), the “CD8+CD44loCD62LhiSca1hi T cells (TSCM) in APTK-induced tumors” value was “marked increase”; the “TCF1 expression in tumor infiltrating CD8+ T cells” value is “increased expression”; the “dendritic cells (DCs), TAMs, MDSC subsets in TME” value is “no change”; the “exhaustion marker CTLA-4 in CD8+ T cells” value is recorded as “reduction”. Moreover, in the test with TIL CD8+ population (UA-fed mice), the “exhaustion marker PD-1 in CD8+ T cells” value was “reduction” and the “exhaustion marker Tim3 in CD8+ T cells” value is recorded as “reduction”. Also, in the test on TIL CD8+ population (setting [1]), the “IFNg induction in tumor infiltrating CD8+ T cells” value is listed as “stronger induction” and the “TNFa induction in tumor infiltrating CD8+ T cells” value was “stronger induction”. In addition, the “number of CD44-CD62L+Sca1hi TSCM” value with CD8+ T cells (24 h, 48 h and 96 h post stimulation) is on record as “in a dose dependent manner to a significantly increased number”. Moreover, in the test with CD8+ T cells (24 hours, 50 µM Urolithin A), the “loss of mitochondrial content per T cell subset (TSCM, TCM, TEFF)” value is on record as “deteted in all T cell subsets analyzed”. In the test with CD8+ T cells (24 hours, UA25, UA50), the “mitochondrial content (Mitotracker Red) in CD8+ cells” value was “loss of mitochondrial content in a dose-dependent manner”. In addition, the “TSCM formation, stimulated vs unstimulated CD8+ cells” value with CD8+ T cells (48 h, aCD3/CD28 beads +-UA or unstimulated) is reported as “only formed in activated T cells”. Also, the “PGC-1 expression in CD8+ cells” value in the test with CD8+ T cells (48 h, prolonged UA administration in vitro) is “marked upregulation of PGC-1”. Further, the “CD95 expression in CD62L+CD44-CD8+ cells” value with CD8+ T cells (48 hours after stimulation) was “increased CD95 expression”. In the test with CD8+ T cells (48 h stimulation), the TCF1 expression entry is recorded as “high expression of TCF1”, the “cyclin D1 expression” value is “reduced cyclin D1 expression”, the “differentiation into effector T cells (effector molecule expression)” value was “blocked differentiation into effector T cells” and the “mitochondrial membrane potential (TMRM) in naive CD62L+CD44-CD8+ T cells” value is listed as “reduced mitochondrial membrane potential”. In addition, in the test on CD8+ T cells (48 h stimulation, different doses of UA), the “naive CD44loCD62Lhi T cells” value is “significant increase”. For the same molecule, the “CD8+ T cell division (CTV staining)” value in the test on CD8+ T cells (72 h stimulation) is given as “restricted CD8+T cell division in a dose-dependent manner”. In the test with CD8+ T cells (six hours after UA administration), the “mitochondrial membrane potential in CD8+ T cells” value was “reduction of mitochondrial membrane potential”. Further, the “lysosome formation in CD8+ cells” value with CD8+ T cells (six hours after stimulation) is listed as “enhanced lysosome formation”.
